Where a name gives a salt, the structure may show the parent alone. Read-outs that look alike come from different tables or passages of the source.
How the values were obtained:
ZIKV SPH [1] = assay: Autophagy compound library screen, ZIKV SPH titer (TCID50) in Vero cells; type: cell-based, Zika virus; details: for activity at 10 µM: Zika virus, Vero, read-out: ZIKV SPH Relative Titer in Vero Cells
ZIKV SPH [2] = assay: Autophagy compound library screen, ZIKV SPH titer (TCID50) in C6/36 cells; type: cell-based, Zika virus; details: for activity at 10 µM: Zika virus, read-out: ZIKV SPH Relative Titer in C6/36 Cells
C6/36 cells = type: cell-based, Ae. albopictus
Vero cells = assay: Cell viability (CellTiter-Glo) of Vero cells; type: cell-based
[3] = 10 µM compound, MOI 0.1, 40 h, TCID50, ± SEM, three independent trials
[4] = C6/36, 10 µM compound, MOI 0.1, 96 h, TCID50, ± SEM, three independent trials
[5] = 10 µM compound, 96 h, CellTiter-Glo, ± SEM, three independent trials
[6] = 10 µM compound, MOI 0.1, 96 h, TCID50, ± SEM, three independent trials
[7] = 10 µM compound, 40 h, CellTiter-Glo, ± SEM, three independent trials

SMILES | activity at 10 µM (ZIKV SPH [1]; [3]) [%] | activity at 10 µM (ZIKV SPH [2]; [4]) [%] | C6/36 Viability (C6/36 cells; [5]) | Vero Viability (Vero cells; 10 µM) | ZIKV SPH Relative Titer in Vero Cells (ZIKV SPH [1]; [3]) | ZIKV SPH Relative Titer in C6/36 Cells (ZIKV SPH [2]; [6]) | Vero Viability (Vero cells; [7]) | activity at 10 µM (ZIKV SPH [1]; 40 h) [%] | activity at 10 µM (ZIKV SPH [2]; C6/36, 96 h) [%] | C6/36 Viability (C6/36 cells; 10 µM)
O=C1NCN(c2ccccc2)C12CCN(CCCC(c1ccc(F)cc1)c1ccc(F)cc1)CC2 [Fluspirilene] | 2.5 ± 0.6 | 1 ± 0.7 | 26 ± 10.3% of untreated control | 56.7 ± 16% of untreated control | – | – | – | – | – | –
CN(C)CCCn1cc(C2=C(c3c[nH]c4ccccc34)C(=O)NC2=O)c2ccccc21 [Go6850] | – | – | 21 ± 0% of untreated control | – | 1.3 ± 0.9% of untreated control | 1.4 ± 1.4% of untreated control | 36.0 ± 9% of untreated control | – | – | –
C[C@H](CCC(=O)O)C[C@H](C)C[C@H](C)C(=O)/C=C(\O)[C@H](C)C[C@H](C)C/C=C/[C@@H](C)[C@@H](O)[C@@H](C)[C@@H](O)C[C@@H]1CC[C@@](C)([C@H]2CC[C@@](C)([C@@H](C)O)O2)O1 [Ionomycin] | 0 | 0 | 1 ± 0.3% of untreated control | – | – | – | 27.7 ± 10.4% of untreated control | – | – | –
CC(Oc1ccc(O)cc1)(P(=O)(O)O)P(=O)(O)O [L-690,330] | – | – | 87 ± 4.6% of untreated control | – | 40.7 ± 10.6% of untreated control | 66.8 ± 2.6% of untreated control | 93.7 ± 3.5% of untreated control | – | – | –
[Cl-].[Li+] [Lithium Chloride] | – | – | 111 ± 10.7% of untreated control | – | 85.4 ± 18.7% of untreated control | 167.9 ± 68.4% of untreated control | 87.0 ± 1% of untreated control | – | – | –
CN(C)C(=O)C(CCN1CCC(O)(c2ccc(Cl)cc2)CC1)(c1ccccc1)c1ccccc1 [Loperamide HCl] | 11.7 ± 3.3 | 0.1 ± 0.1 | 12 ± 6.1% of untreated control | – | – | – | 66.7 ± 17.4% of untreated control | – | – | –
COC(=O)C1=C(C)NC(C)=C(C(=O)OCCCN2CCC(c3ccccc3)(c3ccccc3)CC2)[C@H]1c1cccc([N+](=O)[O-])c1 [Niguldipine] | – | – | – | 30.0 ± 14.2% of untreated control | – | – | – | 0.2 ± 0.1 | 0 | 5 ± 2.1% of untreated control
COC(=O)Nc1nc2ccc(C(=O)c3cccs3)cc2[nH]1 [Nocodazole] | 28.4 ± 23.9 | 182 ± 39.5 | – | 56.0 ± 9.6% of untreated control | – | – | – | – | – | 58 ± 2.9% of untreated control
CNCCCN1c2ccccc2CCc2ccc(Cl)cc21.Cl [Norclomipramine HCl] | – | – | 19 ± 8.9% of untreated control | – | 3.9 ± 0.5% of untreated control | 13.4 ± 8.7% of untreated control | 48.7 ± 22.9% of untreated control | – | – | –
COc1cccc(-c2cc(=O)c3ccccc3o2)c1N [PD-98059] | – | – | 93 ± 8.4% of untreated control | – | 101.0 ± 23.3% of untreated control | 197.3 ± 40% of untreated control | 90.7 ± 1.3% of untreated control | – | – | –
O=S(=O)(F)Cc1ccccc1 [PMSF] | – | – | 81 ± 6.4% of untreated control | – | 89.0 ± 7% of untreated control | 258.0 ± 145.2% of untreated control | 98.3 ± 2% of untreated control | – | – | –
NS(=O)(=O)C#Cc1ccccc1 [Pifithrin-µ] | – | – | 72 ± 3.2% of untreated control | 49.0 ± 15% of untreated control | 38.5 ± 12.4% of untreated control | 75.3 ± 27.5% of untreated control | – | – | – | –
C=CCNc1ncnc2ccc(Br)cc12 [SMER28] | – | – | 36 ± 5.3% of untreated control | – | 65.0 ± 5.6% of untreated control | 38.7 ± 12.2% of untreated control | 92.7 ± 3.5% of untreated control | – | – | –

From PMC6356585 (Viruses, 2018)
